Publication PMC5907308, “21st Brazilian Diabetes Society Congress” (Diabetology & Metabolic Syndrome, 2018)

Columns and labels:
[1] = test system: patients submitted to liver transplantation; type: in vivo, human; settings: Tacrolimus 95% CI 1.2–32.5, p = 0.029; PDN 95% CI 2.4–21, 8, p < 0.001
Text: A total of 152 patients were included. […] Comparisons were done with Chi square tests and analysis of independent risk factors with multivariate logistic regression.

pregnancies = settings: general population: 3-4%; no reference given; cited from earlier work
Text: Discussion: In transplanted pregnant women, hypertension and DM increase the risk of prematurity, restricted intrauterine growth (IUGR) and graft loss. […] In addition, there is a higher rate of small newborns for GI. […] As for immunosuppressants, there are few reports. Tacrolimus appears safe (prevalence of congenital malformations: 4-5% ...

[2] = test system: patient with mucormycosis; experiment: Oral mucormycosis in a diabetic patient, case report; type: in vivo, human; settings: treated for 10 days
Text: Case presentation: person, admitted with diabetic ketoacidosis. On the 5th day of hospitalization, they complained of odynophagia, without other symptoms. On examination of the oral cavity, was found an ulcerated, infiltrative, whitish, and non-removable lesion in the soft palate (Fig. 1). No abnormalities were found in laboratory tests.

[3] = test system: patients with diabetic dyslipidemia; settings: fenofibrate in combination with simvastatin, subgroup with diabetic dyslipidemia; ref [1]; cited from earlier work
patient = experiment: Neonatal diabetes, therapeutic test with sulfonylurea, case report; type: in vivo, human; settings: oral, gradual elevation, insulin suspended; discharged on 20 mg/day
Method: Case presentation: A patient, presenting hypoactivity, sialorrhea and seizures 2 days ago, was admitted to a university hospital. During hospitalization they were evaluated by neurology that identified a discrete delay in neuropsychomotor development. […] Serologies for toxoplasmosis, rubella and measles negative. History of maternal varicella during gestation. […] Due to the delay in carrying out a genetic study to close the diagnosis, material was collected and sent to the genetic service and prescribed sulfonylurea (glibenclamide) as a therapeutic test. The oral medication was initiated in low doses with gradual elevation, and progressive reduction of the insulin until its suspension. […] They were discharged from the hospital using glibenclamide 20 mg/day. The patient is in outpatient follow-up at the endocrinology department of the João de Barros Barreto University Hospital. Endocrinology work team is still waiting for genetic analysis.

[4] = test system: patient with diffuse cutaneous leishmaniasis; settings: side effect, literature; no reference given; cited from earlier work
[5] = test system: patient with diffuse cutaneous leishmaniasis; experiment: Pentamidine-induced diabetes mellitus, case report; type: in vivo, human
Method: Case report: Patient two, diagnosis of diffuse cutaneous leishmaniasis in treatment since 1995 without therapeutic response after several treatments. Regular follow up with infectology, in maintenance treatment with miltefosine and in treatment with pentamidine every 30 days from January 2017, with a marked improvement of cutaneous lesions. During the follow-up, in consultation in July 2017, they complained of weight loss, polydipsia and nocturia, with serum glycemia of 901 mg/dL. Patient was referred to the hospital where they were diagnosed with a non-ketosis hyperosmolar state, with tests showing serum osmolarity of […] and glycated hemoglobin 10.31%. During hospitalization and after discharge maintained insulin use for glycemic control. Treatment of leishmaniasis with pentamidine was discontinued and will keep following-up with infectology and endocrinology.

[6] = test system: patient with squamous cell carcinoma of the hypopharynx; experiment: Autoimmune diabetes after Nivolumab therapy, case report (A402); type: in vivo, human; settings: anti-GAD and anti-ICA positive
Text: Case report: A patient with diagnosis of squamous cell carcinoma of the hypopharynx and pulmonary metastasis 2 years ago, after a failed treatment with conventional chemotherapy and radiotherapy, started a new class of cancer medication called Nivolumab—human immunoglobulin G4 monoclonal antibody. […] Investigation about the cause of the onset of diabetes founded positivity for diabetes antibodies, anti-GAD and anti-ICA, confirming autoimmune diabetes. Patient has been on intensive insulin therapy since then, with difficult glycemic control due to great glycemic variability.

[7] = test system: patient with metastatic lung adenocarcinoma; experiment: New-onset diabetes on Nivolumab, case report (A288); type: in vivo, human
Method: Case report: A patient was started on Nivolumab infusions every 15 days after chemotherapy refractory progressive metastatic lung adenocarcinoma, with no prior history of diabetes. After 4 infusions, they experienced xerostomia, polyuria, polydipsia and asthenia. Upon emergency evaluation, they were started on I.V. insulin after a capillary glycemia of 600 mg/dL. They were discharged home with 10 units of NPH insulin bedtime, with a referral to the endocrinologist. […] Insulin was titrated for a total daily dose of 0.5 UI/kg. […] Nivolumab was withdrawn and no glycemic improvement nor insulin dose reductions were noted.

T1D patients < 18 years = experiment: Real-world clinical follow-up of T1D patients < 18 years switched to insulin degludec; type: in vivo, human; settings: n = 9
Text: Information about HbA1c, insulin dose, weight and frequency of hypoglycaemia (self-reported by patients/parents) were collected in every consultant.

[8] = test system: elderly patients with T2DM; experiment: Pilot randomized trial Ideg vs Iglar-U100 with CGM; type: in vivo, human; settings: for 24-h mean glucose, median (minimum–maximum): CGM after 2 weeks, n = 5 per group, P = 0.84; for standard deviation from the mean glucose, median (minimum–maximum): CGM, P = 0.22
Method: Methods: It is a pilot study with ten patients during six weeks, randomized, prospective, controlled and open label trial. Inclusion criteria: T2DM, age over 60 years, A1C from 7 to 10%, use of NPH insulin with or without oral antidiabetic drugs. […] They were evaluated for glucose variability (GV) and HYPOs by continuous glucose monitoring (CGM) after 2 weeks of treatment with either insulin.

[9] = test system: inpatient population with diabetes; experiment: Degludeca vs NPH, both with Regular Insulin, in hospital (8 patients per group); settings: human, in vivo
Method: Methods: We conducted a retrospective, randomized study to compare the efficacy and safety of different basal insulin (Degludeca versus NPH), both on Basal-bolus insulin regimen on inpatient population with diabetes. Data were collected from the medical records, between May, 2016 until April, 2017. 8 patients were selected and randomized in each group. We established optimal glycemic control for patients with capillary glucose below 140 mg/dl in fasting and before main meals and below 180 mg/dL for 2 h after main meals. The criteria for excellent glycemic control was to achieve at least 70% within the previously established target and for acceptable glycemic control, those patients who had between 60% and 69% of the glycemia within the established target. The total number of hypoglycemia was assessed and classified as severe hypoglycemia (< 40 mg/dl) and mild hypoglycemia (< 70 mg/dl) as well as nocturnal hypoglycemia. In addition, the time required to achieve excellent or acceptable glycemic control was also analyzed.

patients with T2D = experiment: Network meta-analysis Gla-300 vs IDeg (inputs of the cost-effectiveness model); type: in vivo, human; settings: estimated by network meta-analysis
Text: Methods: This modelling analysis simulated a cohort representing patients in the EDITION 2 and 3 trials using the IMS Core Diabetes Model with a time horizon of 50 years (lifetime) for 1,000,000 patients starting at 62 years old. […] The treatment cost was $1,561 per SHE and $13.65 per NSHE (2015 $). Utilities to estimate quality-adjusted life years (QALYs) for multiple comorbidities were applied using the minimum utility approach. A disutility of -0.0118 was applied for SHE, and method of diminishing marginal disutility for NSHE.

type 2 diabetic patient = experiment: Case report: liraglutide added to insulin degludec and metformin; type: in vivo, human; settings: 30 days of Insulin Degludec 16U with metformin
Method: patient one, type 2 diabetic for 3 years, using Gliclazide 60 mg/day and Metformin 1500 mg/day. They reported asthenia and difficulty losing weight. […] To optimize patient glycemic control and weight loss, Liraglutide 1.2 mg/day was initiated. […] The insulin dose was reduced to 10 U and reassessed in 30 days for possible discontinuation of insulin therapy. GLP- 1 receptor agonists stimulate insulin secretion in a […] manner, inhibit glucagon secretion and hepatic glucose output, delay gastric emptying, induce satiety, reduce appetite, and cause weight loss. […] It is a therapeutic option with action well established in weight loss, metabolic and glycemic improvement in the DM2 patient. However, its action on HbA1C reduction was independent of weight loss, evidencing intensive glycemic control with HbA1C between 6.5 and 7.0% even with discrete or even absent weight loss.

child with CGL type 2 = experiment: Case report: high doses of insulin in congenital generalized lipodystrophy; type: in vivo, human
Method: Case: Child with clinical diagnosis of CGL type 2 and diagnosis of diabetes for 1 year. Using Glargina and Lispro insulin basal/bolus (5.1 IU/kg/day) presented mean daily capillary glycemia above 600 mg/dl, associated with irritability, low weight and voracious appetite. Interned for intravenous insulin therapy and nutritional adjustment with standardized diet of 1600 kcal/day fractionated in 7 meals. Initiated continuous infusion of regular insulin (RI), 6.1UI/kg/day. […] Subsequently, it was modified to intramuscular administration, in 5 application times, without differences in glycemic averages. On the 36 th day, Degludeca insulin was introduced (9.3 IU/kg/day) associated with RI (18.2 U/kg/day), evolving within the first 24 h with improved glycemia (180 ± 42 mg/dl). […] After approximately fivefold increase in the initial insulin dose, there was improvement in glycemia, irritability, weight gain and decreased appetite.

patient with DRIASM = experiment: Insulin degludec in DRIASM, case report; type: in vivo, human
Text: Discussion: DRIASM is a rare syndrome, characterized by extreme resistance to SC and IM insulin, whose pathophysiology remains unknown. There are few treatments available and most are ineffective. The use of intraperitoneal insulin pump is the therapy with the best result so far, but it is not available in Brazil. Another possibility is the PTA, initially proposed by our group and then performed in other countries. […] After SC injection, the di-hexamers form a stable depot of multi-hexamer chains, with gradual dissociation of these chains into absorbed monomers.

[10] = test system: patients with DM 1 and DRIASM; experiment: Case reports: IDeg in resistance to subcutaneous and intramuscular insulin (DRIASM); type: in vivo, human; settings: patient 1; IDeg since December 2015
Method: It was suspected of diabetes mellitus with resistance to insulin administered subcutaneously or intramuscularly (DRIASM). […] After that it was decided to perform a therapeutic test with IDeg. […] They remained in use of IDeg 80 UI/d and lispro 600 UI/d. […] An insulin challenge test was performed with SC and IM NPH/Glargina/Detemir and IV regular insulin. […] They remained in use of IDeg 80 UI/d and aspart 2000 UI/d.

[11] = test system: subjects with T2D inadequately controlled on IGlarU100 and metformin; experiment: DUAL V 26-week open-label treat-to-target trial; type: in vivo, human
[12] = test system: patients with T2DM uncontrolled on oral antidiabetic agents; experiment: LixiLan-O, time to glycemic control (Kaplan–Meier), post hoc; type: in vivo, human; settings: LL-O
Method: The Kaplan–Meier method was used to estimate time to control, defined as time (days) to first achieve HbA1c < 7% or FPG ≤ 130 mg/dL. […] In addition to lowering FPG via iGlar, iGlarLixi lowers PPG, likely contributing to its greater efficacy in achieving glycemic control vs. iGlar alone. […] Study codes: NCT02058160 and NCT02058147. This is an ENCORE abstract previously presented at ADA 2017. Funding and editorial support provided by Sanofi (Fig. 1)

C=CC[C@@H]1/C=C(\C)C[C@H](C)C[C@H](OC)[C@H]2O[C@@](O)(C(=O)C(=O)N3CCCC[C@H]3C(=O)O[C@H](/C(C)=C/[C@@H]3CC[C@@H](O)[C@H](OC)C3)[C@H](C)[C@@H](O)CC1=O)[C@H](C)C[C@@H]2OC [Tacrolimus]
independent risk factor for PTDM, OR [1]: 6.3 | prevalence of congenital malformations (pregnancies): 4-5%

C[C@@H]1[C@H](O)[C@@H](C)/C=C/C=C/C=C/C=C/C=C/C=C/C=C/[C@H](O[C@@H]2O[C@H](C)[C@@H](O)[C@H](N)[C@@H]2O)C[C@@H]2O[C@](O)(C[C@@H](O)C[C@@H](O)[C@H](O)CC[C@@H](O)C[C@@H](O)CC(=O)O[C@H]1C)C[C@H](O)[C@H]2C(=O)O [amphotericin B]
clinical response [2]: favorable response

CC(C)OC(=O)C(C)(C)Oc1ccc(C(=O)c2ccc(Cl)cc2)cc1 [fenofibrate]
primary outcomes reduced compared to placebo [3]: about 30%

COc1ccc(Cl)cc1C(=O)NCCc1ccc(S(=O)(=O)NC(=O)NC2CCCCC2)cc1 [glibenclamide]
clinical evolution (patient): good glycemic control and improved neurological symptoms

N=C(N)c1ccc(OCCCCCOc2ccc(C(=N)N)cc2)cc1 [pentamidine]
hyperglycemia reported, cases [4]: 1-5% | glycated hemoglobin ([5]; in vivo): 10.31% | serum osmolarity ([5]; non-ketosis hyperosmolar state): 306 mOsm/L | serum glycemia ([5]; pentamidine every 30 days from January 2017, July 2017): 901 mg/dL

Nivolumab
presentation after the third cycle [6]: hyperglycemia, polyuria and polydipsia | capillary glycemia ([7]; after 4 infusions, every 15 days): 600 mg/dL | C-peptide ([7]; in vivo): 0.34 ng/dL | possible adverse event ([7]; in vivo): New-onset diabetes presenting with Diabetic Ketoacidosis and low levels of Cpeptide

insulin degludec [IDeg]
Median HbA1c at 6 months after switch (T1D patients < 18 years): 7.52% | Median HbA1c before switch (T1D patients < 18 years; on previous basal insulin or CSII): 8.17% | 24-h mean glucose, median (minimum–maximum) [8]: 168 (151–206) mg/dL | standard deviation from the mean glucose, median (minimum–maximum) [8]: 69 (42– 83) | time to achieve excellent glycemic control, average [9]: 4 days | A1C reduction over 24 weeks (patients with T2D): 0.98% | fasting glycemia (GJ) (type 2 diabetic patient): 171 mg/dL | HbA1c (type 2 diabetic patient; […] before): 8.2% | blood glucose level (child with CGL type 2; after the first 24 h of Degludeca with RI): 232.6 ± 74.7 mg/dL | glycemia (child with CGL type 2; first 24 h of Degludeca 9.3 IU/kg/day with RI 18.2 U/kg/day): 180 ± 42 mg/dL | treatment of DRIASM (patient with DRIASM; case report, extreme resistance to SC and IM insulin): effective in the treatment of DRIASM, with reduction in hospital admissions and DKA episodes | absorption and plasma glucose in test (patient with DRIASM; differently from all previously basal insulins): able to be absorbed and to reduce plasma glucose | hospitalizations due to DKA [10]: reduction of hospitalizations

insulin glargine [Gla-100]
mean fasting SMBG after 26 weeks ([11]; NS): 5.6 mmol/L | Mean HbA1c after 26 weeks of treatment ([11]; in vivo): 7.1% | Mean HbA1c, baseline ([11]; in vivo): 8.2% | Days to first HbA1c <7%, median [12]: 166.0 days | 24-h mean glucose, median (minimum–maximum) [8]: 169 (138–193) mg/dL | standard deviation from the mean glucose, median (minimum–maximum) [8]: 45 (41–66)
